Experiments:
Format in all cases: functional
Rattus norvegicus [1] = species on record: Rattus norvegicus; assay: Antiexudative activity in rat assessed as inhibition of exudate formation in granuloma pouch at 0.02 umol compound injected into pouch on day 5 measured on day 11 relative to control
Rattus norvegicus [2] = species on record: Rattus norvegicus; assay: Antiexudative activity in rat assessed as inhibition of exudate formation in granuloma pouch at 0.002 umol compound injected into pouch on day 5 measured on day 11 relative to control
Homo sapiens = assay: Vasoconstrictive activity in human at 0.02 to 0.18 ug applied topically by paper-patch test relative to betamethasone 17-valerate
Rattus norvegicus [3] = assay: Antiexudative activity in rat assessed as inhibition of exudate formation in granuloma pouch at 0.02 umol, sc administered from day 2 to day 10 measured on day 11 relative to control
Rattus norvegicus [4] = assay: Antiexudative activity in rat assessed as inhibition of exudate formation in granuloma pouch at 0.002 umol, sc administered from day 2 to day 10 measured on day 11 relative to control

SMILES	inhibition (INH) (Rattus norvegicus [1]) [%]	inhibition (INH) (Rattus norvegicus [2]) [%]	fold change (FC) (Homo sapiens)	inhibition (INH) (Rattus norvegicus [3]) [%]	inhibition (INH) (Rattus norvegicus [4]) [%]
CC(=O)O[C@]1(C(C)=O)CC[C@H]2[C@@H]3C[C@H](F)C4=CC(=O)C=C[C@]4(C)[C@@]3(F)[C@@H](O)C[C@@]21C	13	18	1.5	–	–
CCC(=O)O[C@]1(C(C)=O)CC[C@H]2[C@@H]3C[C@H](F)C4=CC(=O)C=C[C@]4(C)[C@@]3(F)[C@@H](O)C[C@@]21C	67	47	2.5	–	–
CCCC(=O)O[C@]1(C(C)=O)CC[C@H]2[C@@H]3C[C@H](F)C4=CC(=O)C=C[C@]4(C)[C@@]3(F)[C@@H](O)C[C@@]21C	81	60	2.5	–	–
CC(=O)[C@@]1(OC(=O)c2ccccc2)CC[C@H]2[C@@H]3C[C@H](F)C4=CC(=O)C=C[C@]4(C)[C@@]3(F)[C@@H](O)C[C@@]21C	90	71	<=1	35	<5
CCC(=O)O[C@]1(C(=O)CO)CC[C@H]2[C@@H]3C[C@H](F)C4=CC(=O)C=C[C@]4(C)[C@@]3(F)[C@@H](O)C[C@@]21C	41	<5	–	–	–
C[C@]12C=CC(=O)C=C1[C@@H](F)C[C@H]1[C@@H]3CC[C@](OC(=O)c4ccccc4)(C(=O)CO)[C@@]3(C)C[C@H](O)[C@@]12F	70	46	–	62	20

Source: ChEMBL document CHEMBL3244383, “Antiinflammatory activity of 17-esters of 6alpha,9alpha-difluoro-21-deoxyprednisolone” (1977)
